# Experimental data as given in patent publication US8895597B2, “Combination of local temozolomide with local BCNU” (priority 2010, dated 2014).
# Columns and labels:
# [1] = test system: 9L gliosarcoma; experiment: Efficacy of local TMZ, local BCNU and XRT, intracranial 9L gliosarcoma (second experiment); format: in vivo, F344 rats; conditions: without XRT
# Source text: TMZ, provided by the National Institute of Health/National Cancer Institute, (Bethesda, Md.), was incorporated into a polyanhydride CPP:SA 20:80 polymer at concentrations of 50% (w/w) by methods as described by Tamargo, et al., Cancer Res. 53(2):329-333 (1993). BCNU was purchased from the Johns Hopkins Hospital pharmacy (Bristol Meyers; Princeton, N.J.) and polymers were made at concentrations of 3.8% (w/w) in a similar fashion. The polymers were then pressed into discs weighing approximately 10 mg. Blank polymers (100% CPP:SA) were made in an analogous manner. In vitro release kinetics, biodistribution studies, and studies to determine maximally tolerated dose of BCNU and TMZ polymers as described by Brem, et al., Cancer Chemother. Pharmacol. 60(5):643-650 (2007); Tamargo, et al., Cancer Res. 53(2):329-333 (1993); and Grossman, et al., J. Neurosurg. 76(4):640-647 (1992). Polymers were stored at −20° C. until use.
# The 9L gliosarcoma was obtained from Dr. M. Barker at the University of California-San Francisco Brain Tumor Research Center (San Francisco, Calif.). […]
# To determine the efficacy of the combination of locally delivered TMZ with locally delivered BCNU and XRT, tumor-bearing rats were randomized into groups of sixteen for treatment on post-operative Day 5. […] Any animals appearing moribund were sacrificed and date of death recorded. […]
# [2] = test system: F98 glioma; experiment: Efficacy of local TMZ, local BCNU and XRT, intracranial F98 glioma (resistant to alkylating agents); format: in vivo, F344 rats; conditions: without XRT
smiles,measurement,setting,value
"Cn1nnc2c(C(N)=O)ncn2c1=O [50 mg/kg oral TMZ, temozolomide]",Long-term survivors (%),[1]; alive at Day 120,0%
same,Median survival (days),[1]; range in brackets,24 (14-33) days
same,Long-term survivors (%),[2]; alive at Day 120,0%
same,Median survival (days),[2]; range in brackets,15 (13-18) days
